Source: PMC5390467, “Novel lead structures with both Plasmodium falciparum gametocytocidal and asexual blood stage activity identified from high throughput compound screening” (Malaria Journal, 2017)

Legend:
Experiment in all cases: Kinome scan profile
Format in all cases: binding
Details in all cases: 10 μM
SNRK = target: T1, SNRK (Homo sapiens, UniProt Q9NRH2)
T1 construct: purchased DiscoverX (KINOMEscan)
T1 sequence (Q9NRH2 1-765): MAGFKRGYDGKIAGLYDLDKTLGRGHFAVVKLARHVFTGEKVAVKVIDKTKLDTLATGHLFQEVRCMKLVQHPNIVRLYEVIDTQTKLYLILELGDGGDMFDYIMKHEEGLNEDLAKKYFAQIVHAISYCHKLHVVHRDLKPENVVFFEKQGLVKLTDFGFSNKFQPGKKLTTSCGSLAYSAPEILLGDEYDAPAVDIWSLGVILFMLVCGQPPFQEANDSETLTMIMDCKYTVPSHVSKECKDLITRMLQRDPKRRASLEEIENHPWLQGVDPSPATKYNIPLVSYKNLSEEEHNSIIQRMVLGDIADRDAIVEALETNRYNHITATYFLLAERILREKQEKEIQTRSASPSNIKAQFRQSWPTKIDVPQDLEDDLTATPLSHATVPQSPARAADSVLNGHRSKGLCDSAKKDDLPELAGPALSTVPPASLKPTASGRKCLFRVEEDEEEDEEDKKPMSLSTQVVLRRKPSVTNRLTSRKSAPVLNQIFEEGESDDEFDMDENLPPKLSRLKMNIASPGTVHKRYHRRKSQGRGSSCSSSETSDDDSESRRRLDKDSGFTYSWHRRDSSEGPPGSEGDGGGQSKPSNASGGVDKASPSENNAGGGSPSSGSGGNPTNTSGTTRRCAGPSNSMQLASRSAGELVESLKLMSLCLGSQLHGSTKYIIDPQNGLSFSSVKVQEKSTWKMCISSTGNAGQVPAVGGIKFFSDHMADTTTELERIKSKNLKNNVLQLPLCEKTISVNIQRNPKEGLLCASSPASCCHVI

ALK(C1156Y) = target: T2, ALK(C1156Y) (Homo sapiens, UniProt Q9UM73, C1156Y)
T2 construct: purchased DiscoverX (KINOMEscan)

IKK-epsilon = target: T3, IKK-epsilon (Homo sapiens, UniProt Q14164)
T3 construct: purchased DiscoverX (KINOMEscan)
T3 sequence (Q14164 1-716): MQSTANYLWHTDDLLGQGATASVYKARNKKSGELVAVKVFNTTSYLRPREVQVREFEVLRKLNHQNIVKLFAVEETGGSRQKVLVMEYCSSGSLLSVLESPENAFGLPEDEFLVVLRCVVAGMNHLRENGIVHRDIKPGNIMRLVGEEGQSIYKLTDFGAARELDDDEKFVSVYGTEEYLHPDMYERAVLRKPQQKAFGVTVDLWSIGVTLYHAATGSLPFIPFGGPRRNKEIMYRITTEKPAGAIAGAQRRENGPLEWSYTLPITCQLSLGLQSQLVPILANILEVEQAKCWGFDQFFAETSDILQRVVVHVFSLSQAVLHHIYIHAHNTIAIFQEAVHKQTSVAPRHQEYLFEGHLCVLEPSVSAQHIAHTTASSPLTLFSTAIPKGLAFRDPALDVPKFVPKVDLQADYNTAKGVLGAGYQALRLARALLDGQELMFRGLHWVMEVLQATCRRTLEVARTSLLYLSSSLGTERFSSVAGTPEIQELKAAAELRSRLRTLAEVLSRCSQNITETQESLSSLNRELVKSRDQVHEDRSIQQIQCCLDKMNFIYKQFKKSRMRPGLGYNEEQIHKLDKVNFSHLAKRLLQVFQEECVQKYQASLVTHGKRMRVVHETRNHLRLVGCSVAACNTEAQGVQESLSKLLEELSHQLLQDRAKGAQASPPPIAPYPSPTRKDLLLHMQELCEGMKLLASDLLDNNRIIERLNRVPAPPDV

T2 sequence (Q9UM73 19-1620 C1156Y): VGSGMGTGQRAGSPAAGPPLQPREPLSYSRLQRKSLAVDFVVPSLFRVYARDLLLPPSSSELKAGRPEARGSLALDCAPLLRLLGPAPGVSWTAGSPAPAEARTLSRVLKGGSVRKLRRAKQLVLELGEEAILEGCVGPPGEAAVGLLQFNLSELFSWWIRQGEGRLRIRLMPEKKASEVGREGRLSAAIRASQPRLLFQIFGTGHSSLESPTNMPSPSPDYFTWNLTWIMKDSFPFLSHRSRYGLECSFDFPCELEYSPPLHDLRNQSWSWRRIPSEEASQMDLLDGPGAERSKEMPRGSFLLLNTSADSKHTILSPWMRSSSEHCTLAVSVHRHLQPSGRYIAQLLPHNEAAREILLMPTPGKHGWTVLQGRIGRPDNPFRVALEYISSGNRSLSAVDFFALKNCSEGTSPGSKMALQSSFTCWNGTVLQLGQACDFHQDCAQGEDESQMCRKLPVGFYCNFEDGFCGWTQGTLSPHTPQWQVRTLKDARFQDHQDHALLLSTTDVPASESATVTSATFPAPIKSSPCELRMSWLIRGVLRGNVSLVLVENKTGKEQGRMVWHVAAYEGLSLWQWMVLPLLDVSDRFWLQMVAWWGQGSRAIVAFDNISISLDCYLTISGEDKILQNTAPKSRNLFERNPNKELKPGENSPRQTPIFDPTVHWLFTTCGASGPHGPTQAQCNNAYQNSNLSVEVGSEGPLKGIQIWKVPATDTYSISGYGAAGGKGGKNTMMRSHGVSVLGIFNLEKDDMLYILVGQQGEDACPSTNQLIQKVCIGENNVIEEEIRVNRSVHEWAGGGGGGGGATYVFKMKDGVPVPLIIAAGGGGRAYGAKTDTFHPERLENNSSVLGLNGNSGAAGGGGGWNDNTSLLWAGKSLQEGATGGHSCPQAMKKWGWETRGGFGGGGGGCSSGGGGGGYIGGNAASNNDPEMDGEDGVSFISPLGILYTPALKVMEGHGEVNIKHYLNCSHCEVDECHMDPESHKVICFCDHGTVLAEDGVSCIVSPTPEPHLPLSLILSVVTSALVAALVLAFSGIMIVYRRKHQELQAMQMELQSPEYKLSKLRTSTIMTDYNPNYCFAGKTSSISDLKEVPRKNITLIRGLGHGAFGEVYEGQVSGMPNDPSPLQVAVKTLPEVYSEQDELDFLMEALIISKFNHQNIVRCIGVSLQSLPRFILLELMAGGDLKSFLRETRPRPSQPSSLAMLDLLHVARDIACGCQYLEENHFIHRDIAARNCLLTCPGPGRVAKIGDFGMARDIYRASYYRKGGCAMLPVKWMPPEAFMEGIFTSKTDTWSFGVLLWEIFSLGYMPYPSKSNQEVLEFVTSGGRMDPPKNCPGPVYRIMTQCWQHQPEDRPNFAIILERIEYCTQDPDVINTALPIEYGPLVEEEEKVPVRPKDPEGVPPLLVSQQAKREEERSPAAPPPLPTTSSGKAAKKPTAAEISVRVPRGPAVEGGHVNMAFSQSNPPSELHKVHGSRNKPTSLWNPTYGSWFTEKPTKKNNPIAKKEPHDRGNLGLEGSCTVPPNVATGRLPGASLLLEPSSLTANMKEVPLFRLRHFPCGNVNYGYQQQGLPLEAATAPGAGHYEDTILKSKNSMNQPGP

SMILES: CCN1CCN(Cc2c(O)ccc3c(=O)c(Oc4ccccc4C(C)C)c(C(F)(F)F)oc23)CC1 [NCGC00100599]
- % Control, SNRK (SNRK): 27 % Control
- % Control, ALK(C1156Y) (ALK(C1156Y)): 28 % Control
- % Control, IKK-epsilon (IKK-epsilon): 31 % Control
